# ChEMBL document CHEMBL1134637, “Fluorescent tricyclic analogues of acyclovir and ganciclovir. A structure-antiviral activity study” (2001)
# Legend:
# Assay type in all cases: functional
# [1] = system: Human alphaherpesvirus 1; assay: Minimal inhibitory concentration to reduce virus-induced cytopathicity against KOS strain of human Herpes Simplex Virus -1
# [2] = system: Human alphaherpesvirus 1; assay: Minimal inhibitory concentration to reduce virus-induced cytopathicity against McIntyre strain of human Herpes Simplex Virus-1
# [3] = system: Human alphaherpesvirus 1; assay: Minimal inhibitory concentration to reduce virus-induced cytopathicity against Thymidine kinase deficient(TK-) HSV-1 of Acyclovir
# [4] = system: Human alphaherpesvirus 1; assay: Minimal inhibitory concentration to reduce virus-induced cytopathicity against TK-/TK+ HSV-1 of VMW 837
# [5] = system: Human alphaherpesvirus 1; assay: Minimal inhibitory concentration to reduce virus-induced cytopathicity against F strain of human Herpes Simplex Virus-1 (HSV-1); settings: Human alphaherpesvirus 1; read-out: MIC
# [6] = system: Human alphaherpesvirus 2; assay: Minimal inhibitory concentration to reduce virus-induced cytopathicity against 196 strain of human Herpes Simplex Virus-2
# [7] = system: Human alphaherpesvirus 2; assay: Minimal inhibitory concentration to reduce virus-induced cytopathicity against G strain of human Herpes Simplex Virus-2
# [8] = system: Human alphaherpesvirus 2; assay: Minimal inhibitory concentration to reduce virus-induced cytopathicity against Lyons strain of human Herpes Simplex Virus-2
# [9] = system: Vesicular stomatitis virus; assay: Minimal inhibitory concentration to reduce virus-induced cytopathicity against VSV
# [10] = system: Vaccinia virus; assay: Minimal inhibitory concentration to reduce virus-induced cytopathicity against VV; settings: Orthopoxvirus vaccinia
# [11] = Minimal cytotoxic concentration (MCC) to cause a microscopically detectable change in normal cell morphology
# [12] = Human alphaherpesvirus 2, read-out: MIC
Structure (SMILES),MIC [1] [µg/mL],MIC [2] [µg/mL],MIC [3] [µg/mL],MIC [4] [µg/mL],MIC [5] [µg/mL],MIC [6] [µg/mL],"MIC [7, 12] [µg/mL]",MIC [8] [µg/mL],MIC [9] [µg/mL],MIC [10] [µg/mL],MCC [11] [µg/mL],MIC [7] [pug ml-1]
COc1ccc(-c2cn3c(O)c4ncn(COCCO)c4nc3n2)c(OC)c1,1.92,1.92,> 16,1.92,1.92,1.92,3.2,1.92,16,16,80,–
OCCOCn1cnc2c(O)n3c(C(c4ccccc4)(c4ccccc4)c4ccccc4)cnc3nc21,> 16,> 16,> 16,> 16,> 16,> 16,> 16,> 16,> 16,> 16,80,–
OCCOCn1cnc2c(O)n3cc(-c4ccc5ccccc5c4)nc3nc21,5.8,9.6,16,12.8,9.6,16,6.4,9.6,> 16,> 16,> 80,–
Cc1c(-c2ccccc2)nc2nc3c(ncn3COCCO)c(O)n12,0.11,0.06,3.2,3.2,0.04,0.1,0.16,0.07,> 200,> 200,300,–
CCc1cn2c(O)c3ncn(COCCO)c3nc2n1,1.92,9.6,240,48,9.6,9.6,9.6,9.6,> 400,240,> 400,–
COc1cccc(-c2cn3c(O)c4ncn(COCCO)c4nc3n2)c1,1.92,0.64,> 80,9.6,1.92,3.2,1.92,3.2,240,> 400,> 400,–
CC(=O)OCCOCn1cnc2c(O)n3cc(-c4ccc5ccccc5c4)nc3nc21,> 16,> 16,> 16,> 16,> 16,> 16,> 16,> 16,> 16,> 16,> 80,–
OCCOCn1cnc2c(O)n3c(-c4ccccc4)c(-c4ccccc4)nc3nc21,1.92,9.6,> 16,> 16,9.6,9.6,1.92,16,> 16,> 16,> 16,–
Cc1ccc(-c2cn3c(O)c4ncn(COC(CO)CO)c4nc3n2)cc1,0.02,0.08,> 16,0.1,0.01,0.13,0.13,0.08,> 16,> 16,80,–
COc1ccc(-c2nc3nc4c(ncn4COCCO)c(O)n3c2-c2ccc(C(c3ccccc3)c3ccccc3)cc2)cc1,> 16,> 16,> 16,> 16,> 16,> 16,–,> 16,> 16,> 16,80,>16
COc1ccc(-c2cn3c(O)c4ncn(COC(CO)CO)c4nc3n2)cc1,0.005,0.005,> 16,0.04,0.005,0.08,0.03,0.02,> 80,> 80,> 80,–
O=c1[nH]c(=O)n([C@H]2C[C@H](O)[C@@H](CO)O2)cc1/C=C/Br [BRIVUDINE],0.02,0.01,90,> 100,0.02,> 100,> 100,> 100,> 200,9.2,> 400,–
Cc1nc2nc3c(ncn3COCCO)c(O)n2c1C(c1ccccc1)(c1ccccc1)c1ccccc1,> 16,> 16,> 16,> 16,> 16,> 16,> 16,> 16,> 16,> 16,80,–
OCC(CO)OCn1cnc2c(O)n3ccnc3nc21,0.7,0.7,400,–,0.7,2,2,0.7,–,400,400,–
COc1ccc(-c2cn3c(O)c4ncn(COCCO)c4nc3n2)cc1,0.1,0.03,5.9,21,0.07,0.2,0.15,0.2,> 40,> 40,150,–
